Experimental data taken from patent US20240228443A1, “NOVEL MANUFACTURING METHOD OF D[…] PRECURSORS THEREOF” (GlaxoSmithKline Intellectual Property (No.2) Limited, priority 2021, published 2024).
Converted amounts (≈) assume the structure as drawn.

Assay: Solubility by saturation of the solvent, filtration and determination of concentration in the supernatant
Format: physicochemical
Conditions: thermodynamic from solid
Method: The solubility of 5-acetyl-1,3-dicyclohexylpyrimidine-2,4,6(1H,3H,5H)-trione was measured in 29.5% v/v acetic anhydride-acetic acid (a mimic for the solvent composition at the end of Stage 1), acetic acid and water. The solubility was measured by saturation of the solvent with the component, filtration and determination of the component concentration in the supernatant.

Structure (SMILES): CC(=O)C1C(=O)N(C2CCCCC2)C(=O)N(C2CCCCC2)C1=O [5-acetyl-1,3-dicyclohexylpyrimidine-2,4,6(1H,3H,5H)-trione]
- solubility (organic solvent or mixture, in 29.5% v/v acetic anhydride-acetic acid at 15° C.): 43.7 mg/mL (≈ 131 mM)
- solubility (organic solvent or mixture, in acetic acid at 20° C.): 62.3 mg/mL (≈ 186 mM)
- solubility (in water at 25° C.): < 0.1 mg/mL
